The subject of data set [1] is spontaneously hypertensive rats (SHRs). Put plainly: In vivo antihypertensive efficacy, tail-cuff blood pressure. Set-up: species or system rat. To be noted: single oral dose 5 mg/kg, 2 h after administration, n = 6.
Description: Twelve weeks old male spontaneously hypertensive rats (SHRs) with a circa weight between 250 and 320 g were purchased from Beijing Vital River Laboratory Animal Technology Co., Ltd. After a week of adaption, animals were admitted to experiments (six per group). […] The rats were free access to food and water. […] In this study, groups of rats were used for the oral administration of saline group, Captopril group vs. YF4 group, YF4 vs. YF4-NPs vs YF4-LNPs.
Simultaneously, the captopril and the saline water were used as the positive control and control group, respectively. SHRs were randomly divided into three groups (n = 6). Control group were treated with 0.9% saline water, and the other groups were treated with captopril (5 mg/kg) or the same dose of YF4 dissolved in saline water. All rats were administered at a single oral dose.
In YF4-LNPs pharmacodynamics study, the SHRs were randomly divided into three groups (n = 6). Control group were treated with 0.9% saline water, the other groups of SHRs were treated withYF4 and YF4-LNPs. All the groups of rats were given the same dose at 0.8 mg/kg body weight. Blood pressure was indirectly recorded as described above. […] All the SBP were measured for three times to get the average value at each time point.
A short description of data set [2]: Pharmacokinetics after a single gavage administration. The format is in vivo. To be noted: SD rats, single gavage 1.2 mg/kg, plasma, DAS 2.0, mean ± SD, n = 6. The source says: Six 8-week-old male SD rats with weight between 180 to 220 g were purchased from the Laboratory Animal Center of Sichuan University (Sichuan University, Chengdu, Sichuan, China). The animals were maintained under 12-hour dark and light cycles at 22℃ and free access to food and water. After a week of adaptation, these SD rats were admitted to experiments. Absorption of YF4 in SD rats following a single oral administration of YF4 was investigated. At the end of the experiment, the rats were sacrificed inside an isoflurane chamber to avoid unnecessary suffering. The experiments were approved and supervised by the State Key Laboratory of Biotherapy Animal Care and Use Committee (Sichuan University, Chengdu, Sichuan, China).
SD rats were used to investigate the […] of YF4. Rats were chosed randomly for oral administration of free YF4 at the dose of 1.2 mg/kg (n=6), respectively. Before the experiment, all rats were fasted for 12 h with free access to water. Each rat was administered an oral volume of 0.5 mL/100 g. Approximate 200 μL of blood samples were collected from the orbit into a heparin zed centrifuge tube before and at 0.083, 0.25, 0.5, 0.75, 1, 1.5, 2, 3, 4, 6, 8, 12 h post-dosing. All blood samples were centrifuged at 3500 rpm (4 ℃) for 10 min. The plasma samples were collected and stored at -20 ℃ until analyzed by Drug and Statistics 2.0 (DAS 2.0) (Mathematical Pharmacology Professional Committee of China, Shanghai, China).

The structures appear in SMILES notation. Residues, ends and D or L forms follow the SMILES beside them.

For `C[C@H](CS)C(=O)N1CCC[C@H]1C(=O)O` [captopril], the “blood pressure lowing (BPL) effect compared with saline group” value in data set [1] is reported as 23.0 mmHg.

With `CC(C)C[C@H](NC(=O)CNC(=O)[C@@H](N)Cc1ccc(O)cc1)C(=O)N[C@@H](Cc1ccccc1)C(=O)O` [YF4, Tyr-Gly-Leu-Phe] (H-YGLF-OH), the peak concentration (Cmax) in data set [2] was found to be 15470 ± 3050 ng/mL. The compound further registered an AUC(0-inf) in data set [2] (male, rat, po) of 45400 ± 9420 ng·h/mL. The CL/F in data set [2] (male, rat, po, read-out: CLz/F (converted)) was 0.333 mL/min/kg. The MRT in data set [2] (male, rat, po, read-out: MRT(0-t)) was 3.17 ± 0.68 h. Moreover, the half-life in data set [2] (male, rat, po, read-out: T1/2z (half-life) (converted)) was 2.91 ± 0.05 h.

The term Cmax denotes the peak of the concentration-time curve. In general, AUC(0-inf) refers to total exposure, with the tail of the curve extrapolated. Lower therefore signals low exposure. As usually defined, the MRT is a mean duration of stay, worked out from the concentration-time curve.

The values above are taken from article PMC6401629, “Lipid Nanoparticles-Encapsulated YF4: A Potential Therapeutic Oral Peptide Delivery System for Hypertension Treatment” (Frontiers in Pharmacology, 2019).
